Assay results from patent US20070191447A1, “Novel heterocyclic compound” (priority 2004, published 2007).

Target: T1, benzodiazepine ω3 receptor (Rattus norvegicus, UniProt P16257)
T1 construct: The kidney membrane fraction (ω3) was prepared as follows; from tissue; host or cells: rat (SD, male) kidney membrane fraction
Test: Benzodiazepine ω3 receptor binding inhibition test ([3H]-PK-11195, rat kidney membrane fraction)
Settings: 1 h, compound final concentration 100 nM, [3H]-PK-11195 1 nM, 4° C., one hour, read-out: [3H]-PK-11195 Binding inhibitory rate (%)
Protocol: Experiment 1: Benzodiazepine ω3 receptor and benzodiazepine ω1, ω2 receptors binding inhibition test
The benzodiazepine ω3 receptor binding assay was carried out according to the method disclosed in the literature (Mol. Phamacol., 34, 800-805, 1988), and the benzodiazepine ω1, ω2 receptor binding assays were carried out according to the method disclosed in the literature (Neurophamacol., 34, 1169-1175, 1995), respectively.
SD male rats (Japan Charles River) were decapitated, and the kidney and the cerebral cortex were collected. The kidney membrane fraction (ω3) was prepared as follows. The kidney was homogenized with ice-cold 50 mM Tris-HCl buffer (pH 7.6) of about 5-times volume of the wet tissue weight, and the homogenate was centrifuged at 4° C. for 10 minutes at 20,000 g. The pellets thus obtained were suspended again, and centrifuged at 4° C. for 10 minutes at 20,000 g. These resuspension and centrifugation procedures were repeated once more, and the obtained pellets were diluted in a 50 mM Tris-HCl buffer (pH 7.6) into a concentration of 0.1 mg of protein per one assay of the receptor binding test. The cerebral cortex membrane fraction (ω1 and ω2) was prepared as follows. The cerebral cortex was homogenized with ice-cold potassium phosphate buffer (200 mM KCl, 20 mM KOH, 20 mM KH2PO4, pH 7.4) of 15-times volume of the wet tissue weight, and the homogenate was centrifuged at 4° C. for 15 minutes at 32,500 g. The obtained pellets were suspended again and centrifuged at 4° C. for 15 minutes at 32,500 g. These resuspension and centrifugation procedures were repeated once more, and the obtained pellets were diluted in the potassium phosphate buffer into a concentration of 0.1 mg of protein per one assay of the receptor binding test. Both of these membrane fractions were frozen and stored at −80° C.
As the [^3H]-labeled ligand, [^3H]-PK-11195 (for ω3; PerkinElmer) or [^3H]-Ro-15-1788 [Flumazenil] (for ω1 and ω2; PerkinElmer) was used. […] In order to obtain total binding in the binding inhibition assay, a 0.5% DMSO, the [^3H] labeled ligand (final concentration: 1 nM), and the membrane fraction were mixed (total volume: 1 mL), and the mixture was incubated at 4° C. (for ω3) or at 25° C. (for ω1 and ω2) for one hour. In order to obtain non-specific binding, the non-labeled ligand (final concentration: 10 μM) was added instead of 0.5% DMSO, and in order to study the binding affinity of the present compounds, a solution of the present compound (final concentration: 100 nM for ω3, or 10 μM for ω1 and ω2) in DMSO was added. After the one-hour incubation, the labeled ligand bound to the receptor was collected by filtration with suction through a 0.3% polyethyleneimine-treated GF/B filter using a cell harvester, and washed with ice-cold 50 mM Tris-HCl buffer (for ω3) or ice-cold potassium phosphate buffer (for ω1 and ω2) once. The radioactivity on the GF/B filter was measured with liquid scintillation counter (manufactured by Packard, Tri Carb 2700TR). The results were expressed by the inhibition rate (%) against the binding to the labeled ligand.

| inhibition at 0.1 µM [%] | SMILES |
| --- | --- |
| 99 | CN(C(=O)Cn1c(=O)sc2c(Br)cccc21)c1ccccc1 [Example 56] |
| 93 | CN(C(=O)Cn1c(=O)n2c3c(cccc31)CCC2)c1ccccc1 [Example 113, N-Methyl-2-(2-oxo-5,6-dihydro-4H-imidazo[4,5,1-ij]quinolin-1(2H)-yl)-N-phenylacetamide] |
| 83 | CC(C(=O)N(C)c1ccccc1)n1c(=O)n2c3c(cc(Br)cc31)CCC2 (stereo not drawn) [Example 137, 2-(8-Bromo-2-oxo-5,6-dihydro-4H-imidazo[4,5,1-ij]quinolin-1(2H)-yl)-N-methyl-N-phenylpropanamide] |
| 83 | CN(C(=O)C1CCc2cccc3c2n1c(=O)n3C)c1ccccc1 (stereo not drawn) [Example 142, N,1-Dimethyl-2-oxo-N-phenyl-1,2,5,6-tetrahydro-4H-imidazo[4,5,1-ij]quinoline-4-carboxamide] |

The remaining lines, values behind:

| SMILES | inhibition at 0.1 µM [%] |
| --- | --- |
| CN(C(=O)Cn1c(=O)sc2ccc(Br)cc21)c1ccccc1 [Example 55] | 98 |
| CCCN(CCC)C(=O)Cn1c(=O)n(C)c2ccc(-c3ccccc3)cc21 [Example 60] | 100 |
| CN(C(=O)Cn1c(=O)n(C)c2cc(-c3ccccc3)ccc21)c1ccccc1 [Example 61] | 100 |
| CN(C(=O)Cn1c(=O)n2c3c(cc(Oc4ccccc4)cc31)CCC2)c1ccccc1 [Example 136, N-Methyl-2-(2-oxo-8-phenoxy-5,6-dihydro-4H-imidazo[4,5,1-ij]quinolin-1(2H)-yl)-N-phenylacetamide] | 95 |
| CN(C(=O)Cn1c(=O)oc2ccc(C(=O)c3ccccc3)cc21)c1ccccc1 [Example 373, 2-(5-Benzoyl-2-oxo-1,3-benzoxazol-3(2H) -yl)-N-methyl-N-phenyl-acetamide] | 89 |
| CC(=O)c1cc(Br)cc2c1oc(=O)n2CC(=O)N(C)c1ccccc1 [Example 389, 2-(7-Acetyl-5-bromo-2-oxo-1,3-benzoxazol-3(2H)-yl)-N-methyl-N-phenyl-acetamide] | 97 |
| CN(C(=O)Cn1c(=O)sc2ccc(-c3ccncc3)cc21)c1ccccc1 [Example 395, N-Methyl-2-(2-oxo-5-pyridin-4-yl-1,3-benzothiazol-3(2H)-yl)-N-phenyl-acetamide] | 95 |
| CC(C)n1c(=O)n(CC(=O)N(C)c2ccccc2)c2cc(-c3ccccc3)ccc21 [Example 401, 2-(3-Isopropyl-2-oxo-6-phenyl-2,3-dihydro-1H-benzimidazol-1-yl)-N-methyl-N-phenylacetamide] | 88 |
